B1: Daclizumab (antibody, chains of the INN, looked up, V domains shown)
VH: QVQLVQSGAEVKKPGSSVKVSCKASGYTFTSYRMHWVRQAPGQGLEWIGYINPSTGYTEYNQKFKDKATITADESTNTAYMELSSLRSEDTAVYYCARGGGVFDYWGQGTLVTVSS
VL: DIQMTQSPSTLSASVGDRVTITCSASSSISYMHWYQQKPGKAPKLLIYTTSNLASGVPARFSGSGSGTEFTLTISSLQPDDFATYYCHQRSTYPLTFGQGTKVEVK
notes: humanized monoclonal antibody against the alpha chain of IL2-receptor complex, CAS number 152923-59-3; b50 calls it Simulect

How the values were obtained:
Type in all cases: cell-based, human
CMV-specific T cells [1] = test: CD4+ and CD8+ expression of CMV-specific T cells after 18 days of expansion (flow cytometry); details: for CD4+/CD8+ T cell ratio: after 18 days of expansion, Sirolimus LD 20 nmol/l or VLD 2 nmol/l, aIL2R 20 μg/mL, every 2 days; for CD4+ T cell proportion in the culture: after 18 d expansion
Method: (§1) CMV-specific T-cells were enriched and expanded using a previously described technique (Becker et al., Nat. Med. 2001, 7, 1159-62). Briefly, 4×10^7 autologous PBMCs were stimulated for 6 h with 1 μg/mL overlapping human cytomegalovirus phosphoprotein 65 (pp65) and immediately early 1 protein (IE1) peptide pools (JPT Peptide Technologies). Pools consisted of 15-mer peptides overlapping by 10 amino acids and were dissolved in dimethyl sulfoxide (DMSO). IFNγ producing cells underwent positive selection by the IFNγ capture-system (Miltenyi Biotech) according to the protocol provided by the manufacturer. IFNγ+ cells were next cultured for 18 days in 24-well plates together with 10^7 irradiated autologous PBMCs using RPMI 1640 supplemented with 10% fetal bovine serum 1% Penicillin/Streptomycin (Biochrom) and 50 U/mL rIL2 (Chiron) and 10 ng/mL rIL7 (Cellgenix) or solitary when indicated elsewise. Where indicated, either mTor-inhibitor (sirolimus, Sigma-Aldrich) at very low dose (VLD, 2 nM) and low dose (LD, 20 nM) or IL2 receptor antagonist (Basiliximab, Simulect, Novartis) at 20 μg/mL were added from day 1 on every two days together with subsequent media supplementation.
Following antigen specific stimulation, cytokine secretion (IFNγ, TNFα and IL2) and activation marker expression (CD137 and CD154) were determined by intracellular fluorescence staining. All antibodies were purchased from Becton Dickinson (BD), except indicated. Virus infected monocytes and peptide-pool loaded LCL or monocytes (1 μg/mL IE-1/pp65) were added to T cells in diluting ratio of 1:10. Unpulsed LCL or monocytes (DMSO incubated) display unstimulated control. For effector cytokine detection, cultured T cells were re-stimulated for 18 h in the presence of 1 μg/mL brefeldin A (Sigma-Aldrich). For CD107a (H4A3) detection, 2 μM monensin (Golgi Stop, BD) was ancillary added. Cells were then harvested and phenotype was stained with monoclonal antibodies for surface markers CD3 (UCHT1, eBioscience), CD8 (3B5, Invitrogen) and CD4 (SK3). To define memory phenotypes, T cells were extracellularly stained for CCR7 (#150503, R&D), CD62L (DREG56, Beckman Coulter), CD45RA (2H4LDH11LDB9, Beckman Coulter) and CD127 (hIL-7R-M21). To exclude dead cells, live/dead-discrimination staining-dye (Invitrogen) was added. Subsequently, cells were permeabilized with Perm2 solution (BD Biosciences) and stained for IFNγ (4S.B3, eBiosciences), TNFα (MAb11), IL2 (MQ1-17H12), CD137 (4B4-1) and CD154 (TRAP1). To define regulatory T cells, T cells were stained intranuclear for Foxp3 (259D/C7) and Helios (22F6, BioLegend). For intracellular staining of Foxp3 and Helios, Foxp3 staining kit from eBioscience was used. Cells were measured with a LSR-II flow cytometer and analyzed using FlowJo Version 8 software (Tree Star). […]

[2] = test system: CMV strain NEWT infected autologous monocytes; test: Response of expanded T cells to NEWT infected autologous monocytes / iDC; details: co-culture 18 h, T cell/target ratio 10:1
Method: Differentiated monocytes infected with CMV-related laboratory wildtype strain NEWT were used as targets. To mimic CMV-infection, autologous LCL were pulsed with 1 μg/mL overlapping CMVpp65/IE-1 peptide pools, whereas unpulsed LCL display uninfected targets. Targets were labeled with 10 μM carboxyfluorescein succinimidyl ester (CFDA-SE Molecular Probes). As controls, unpulsed LCL and uninfected differentiated monocytes (Fibroblast incubated) were labeled with 5 μM dimethyldodecylamine oxide-succinimidyl ester (Far Red; Invitrogen). Cells were co-cultured for 16 h in T cell/target ratio of 10:1. Probes were analyzed as triplicates using LSR-II flow cytometer. […] Analysis was gated on live/dead-discrimination staining-dye negative cells (near-IR fluorescent reactive dye, Invitrogen). The mean percent survival of pulsed or NEWT infected targets was calculated relative to antigen-unpulsed controls. Percentaged lytic activity of target lysis was calculated as follows: mean percent survival of targets in cultures containing defined numbers of effector T cells in comparison to control cells without T cells. […]
Following antigen specific stimulation, cytokine secretion (IFNγ, TNFα and IL2) and activation marker expression (CD137 and CD154) were determined by intracellular fluorescence staining. […] Cells were measured with a LSR-II flow cytometer and analyzed using FlowJo Version 8 software (Tree Star). […]

CMV-specific T cells [3] = test: Differentiation / central memory phenotype (CCR7, CD45RA, CD62L, CD127) of expanded CMV-specific T cells; details: for CD62L expression on purified CD8+ T cells: CD8+ T cells cultured separately; for CD62L expression on purified CD8+ T cells / CD62L expression, CD8+ T cell bulk cultures and separately cultured CD4+ T cells: FIG. 12; for expression of the cell surface marker CD62L: CMV specific T-cell lines, day 18, six independent experiments; for central/memory T cells (CCR7+ CD45RA-): after 18 days of expansion; for expansion rate and keeping the TCM phenotype with full functionality: cultivation with both IL-2 and IL-7, FIG. 13; for CD62L expression, CD8+ T cell bulk cultures and separately cultured CD4+ T cells: rapamycin LD; for TCM formation: together with either IL-2 or IL-7, FIG. 13, four independent experiments
Method: as §1
(§2) Following antigen specific stimulation, cytokine secretion (IFNγ, TNFα and IL2) and activation marker expression (CD137 and CD154) were determined by intracellular fluorescence staining. All antibodies were purchased from Becton Dickinson (BD), except indicated. Virus infected monocytes and peptide-pool loaded LCL or monocytes (1 μg/mL IE-1/pp65) were added to T cells in diluting ratio of 1:10. Unpulsed LCL or monocytes (DMSO incubated) display unstimulated control. For effector cytokine detection, cultured T cells were re-stimulated for 18 h in the presence of 1 μg/mL brefeldin A (Sigma-Aldrich). For CD107a (H4A3) detection, 2 μM monensin (Golgi Stop, BD) was ancillary added. Cells were then harvested and phenotype was stained with monoclonal antibodies for surface markers CD3 (UCHT1, eBioscience), CD8 (3B5, Invitrogen) and CD4 (SK3). To define memory phenotypes, T cells were extracellularly stained for CCR7 (#150503, R&D), CD62L (DREG56, Beckman Coulter), CD45RA (2H4LDH11LDB9, Beckman Coulter) and CD127 (hIL-7R-M21). To exclude dead cells, live/dead-discrimination staining-dye (Invitrogen) was added. Subsequently, cells were permeabilized with Perm2 solution (BD Biosciences) and stained for IFNγ (4S.B3, eBiosciences), TNFα (MAb11), IL2 (MQ1-17H12), CD137 (4B4-1) and CD154 (TRAP1). To define regulatory T cells, T cells were stained intranuclear for Foxp3 (259D/C7) and Helios (22F6, BioLegend). For intracellular staining of Foxp3 and Helios, Foxp3 staining kit from eBioscience was used. Cells were measured with a LSR-II flow cytometer and analyzed using FlowJo Version 8 software (Tree Star). Lymphocytes were gated based on the FSC versus SSC profile and subsequently gated on FSC (height) versus FSC to exclude doublets.

CMV-specific T cells [4] = test: Expansion of CMV-specific T cell culture over 18 days; details: for expansion of central memory T cells (TCM): after 18 d of treatment, FIG. 4D
Method: as §1

CMV-specific T cells [5] = test: Intracellular cytokine and activation marker staining after antigen specific stimulation with peptide loaded APCs; details: for quantity and quality of virus-specific T cells: in vitro
Method: as §2
CD4+ and CD8+ T cells (A Sirolimus; B aIL2R antagonist). Frequencies were assessed following antigen specific stimulation. Specific T-cells were stimulated for 18 h (16 h Brefeldin A) w/peptide loaded APCs in ratio of 1:10. APCs were pulsed with 1 μg/mL IE-1/pp65 peptide pool. IFNγ, TNFα and IL2 cytokine secretion and CD137 and CD154 activation marker expression were determined by intracellular staining. Cells were permeabilized and stained for IFNγ, IL2, TNFα, live/dead dye, CD3, CD4, CD8, CD137 and CD154.

[6] = day 18, after antigen specific stimulation

| Molecule | CD4+/CD8+ T cell ratio (CMV-specific T cells [1]) | response to NEWT infected autologous monocytes (IFNγ, TNFα, CD137, CD154) [2] | CD62L expression on purified CD8+ T cells (CMV-specific T cells [3]) | expression of the cell surface marker CD62L (CMV-specific T cells [3]) | central/memory T cells (CCR7+ CD45RA-) (CMV-specific T cells [3]) | expansion rate and keeping the TCM phenotype with full functionality (CMV-specific T cells [3]) | CD62L expression, CD8+ T cell bulk cultures and separately cultured CD4+ T cells (CMV-specific T cells [3]) | TCM formation (CMV-specific T cells [3]) | expansion of central memory T cells (TCM) (CMV-specific T cells [4]) | CD137 activation marker expression on CD8+ T cells (CMV-specific T cells [5]; [6]) | CD4+ T cell proportion in the culture (CMV-specific T cells [1]) | clonal expansion (CMV-specific T cells [4]; 18 days of expansion) | CD137 and CD154 activation marker expression on CD4+ T cells (CMV-specific T cells [5]; [6]) | quantity and quality of virus-specific T cells (CMV-specific T cells [5]) |
| --- | --- | --- | --- | --- | --- | --- | --- | --- | --- | --- | --- | --- | --- | --- |
| Basiliximab [aIL2R] | more balanced CD4+/CD8+ T cell ratio | superiorly respond | could not be enhanced | significant prolonged expression | significantly increases central memory T cells | best results | increased CD62L expression | promotes TCM formation | sequential expansion of both CD4 and CD8 central memory T cells | dose-dependent elevated | – | – | – | – |
| CO[C@H]1C[C@@H]2CC[C@@H](C)[C@@](O)(O2)C(=O)C(=O)N2CCCC[C@H]2C(=O)O[C@H]([C@H](C)C[C@@H]2CC[C@@H](O)[C@H](OC)C2)CC(=O)[C@H](C)/C=C(\C)[C@@H](O)[C@@H](OC)C(=O)[C@H](C)C[C@H](C)/C=C/C=C/C=C/1C [Sirolimus] | more balanced CD4+/CD8+ T cell ratio | superiorly respond | could not be enhanced | significant prolonged expression | significantly increases central/memory T cells | best results | increased CD62L expression | promotes TCM formation | sequential expansion of both CD4 and CD8 central memory T cells | dose-dependent elevated | increased the CD4+ T cell proportion | without affecting clonal expansion | not impaired | enhance the quantity and quality |
| B1 | – | – | – | – | – | – | – | – | – | – | increased the CD4+ T cell proportion | – | – | enhance the quantity and quality |
